In ChEMBL document CHEMBL1201862, “PubChem BioAssay data set” (2004):
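How tested: cells in 96-well plates exposed to compound for 48 hours at five concentrations. GI50 = concentration required for 50% inhibition of growth.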 Calls of active or inactive are those of the source. Rule as the data show it: active = GI50 up to about 1.1 µM and inactive = higher.

What was measured:
Assay in all cases: NCI anticancer screen, dose series, 48 h
BT-549 = test system: BT-549
M14 = test system: M14
KM12 = test system: KM12
PC-3 = test system: PC-3
SR = test system: SR
SK-MEL-5 = test system: SK-MEL-5
COLO 205 = test system: COLO 205
OVCAR-8 = test system: OVCAR-8
IGROV-1 = test system: IGROV-1
SF-295 = test system: SF-295
SK-MEL-2 = test system: SK-MEL-2
A498 = test system: A498
U-251 = test system: U-251
SNB-19 = test system: SNB-19
HOP-92 = test system: HOP-92
CCRF-CEM = test system: CCRF-CEM
CAKI-1 = test system: CAKI-1
SNB-75 = test system: SNB-75
Hs-578T = test system: Hs-578T

Measured: GI50

CC(=O)NC1(c2cc3ccccc3s2)CCCCCC1
inactive: BT-549 58.9 µM | M14 42 µM | KM12 41.8 µM | PC-3 27.4 µM | SR 28.4 µM | SK-MEL-5 27.1 µM | COLO 205 22 µM | OVCAR-8 50.9 µM | IGROV-1 66.4 µM | SF-295 33.7 µM | SK-MEL-2 33 µM | A498 43.4 µM | U-251 40.8 µM | SNB-19 74.5 µM | HOP-92 59.3 µM | CCRF-CEM 20.7 µM | CAKI-1 52.6 µM | SNB-75 31 µM

CC(=O)CCn1c(=S)sc2ccccc21
inactive: BT-549 > 100 µM | M14 > 100 µM | KM12 > 100 µM | PC-3 > 100 µM | SK-MEL-5 56.8 µM | COLO 205 > 100 µM | OVCAR-8 > 100 µM | IGROV-1 98.6 µM | SF-295 > 100 µM | SK-MEL-2 > 100 µM | U-251 > 100 µM | SNB-19 > 100 µM | HOP-92 > 100 µM | CCRF-CEM 25.6 µM | Hs-578T > 100 µM | CAKI-1 49.7 µM | SNB-75 > 100 µM

CC(C)(SCc1ccccc1)C(N)C(=O)O (configuration not stated)
inactive: BT-549 > 100 µM | M14 > 100 µM | KM12 > 100 µM | PC-3 > 100 µM | SR > 100 µM | SK-MEL-5 > 100 µM | OVCAR-8 > 100 µM | IGROV-1 > 100 µM | SF-295 > 100 µM | SK-MEL-2 > 100 µM | A498 > 100 µM | U-251 > 100 µM | SNB-19 > 100 µM | HOP-92 > 100 µM | CCRF-CEM > 100 µM | CAKI-1 > 100 µM | SNB-75 > 100 µM

c1ccc2c(c1)ccc1nc(-c3ccc4c(c3)OCO4)c3c(c12)CCC3
inactive: BT-549 > 100 µM | M14 > 100 µM | KM12 34 µM | PC-3 56.4 µM | COLO 205 56.9 µM | OVCAR-8 56.4 µM | SF-295 77.4 µM | SK-MEL-2 > 100 µM | A498 > 100 µM | U-251 > 100 µM | SNB-19 > 100 µM | CCRF-CEM 74.5 µM | Hs-578T 55.8 µM | CAKI-1 > 100 µM | SNB-75 > 100 µM

O=C(O)c1ccc(Nc2nc3ccccc3nc2C(=O)O)cc1
inactive: BT-549 > 100 µM | M14 > 100 µM | KM12 > 100 µM | SR > 100 µM | SK-MEL-5 > 100 µM | COLO 205 > 100 µM | OVCAR-8 > 100 µM | IGROV-1 > 100 µM | SF-295 > 100 µM | SK-MEL-2 > 100 µM | U-251 > 100 µM | SNB-19 > 100 µM | HOP-92 > 100 µM | CCRF-CEM > 100 µM | Hs-578T > 100 µM | CAKI-1 > 100 µM | SNB-75 > 100 µM

Cc1ccc(Oc2cc(C)ccc2P(=O)(O)O)cc1
inactive: BT-549 > 100 µM | M14 > 100 µM | KM12 > 100 µM | PC-3 > 100 µM | SK-MEL-5 > 100 µM | COLO 205 > 100 µM | OVCAR-8 > 100 µM | IGROV-1 > 100 µM | SF-295 > 100 µM | SK-MEL-2 > 100 µM | SNB-19 > 100 µM | HOP-92 > 100 µM | CCRF-CEM > 100 µM | Hs-578T > 100 µM | CAKI-1 > 100 µM | SNB-75 > 100 µM

CC1(C)CC(=O)C(=CNC(N)=S)C(=O)C1
inactive: BT-549 > 100 µM | M14 > 100 µM | KM12 > 100 µM | PC-3 > 100 µM | SK-MEL-5 > 100 µM | COLO 205 > 100 µM | OVCAR-8 > 100 µM | IGROV-1 > 100 µM | SF-295 > 100 µM | SK-MEL-2 > 100 µM | U-251 > 100 µM | SNB-19 > 100 µM | HOP-92 > 100 µM | CCRF-CEM > 100 µM | Hs-578T > 100 µM | CAKI-1 > 100 µM | SNB-75 > 100 µM
